{"source": "paper PMC11364104", "about": "“Discovery of SARS-CoV-2 papain-like protease (PL^pro) inhibitors with efficacy in a murine infection model” (Science Advances, 2024)", "key": {"[1]": {"system": "Nicotinic Ach Receptor (muscle)", "assay": "CEREP ion channel-binding", "details": "30 µM"}, "[2]": {"target": "T1, PDE3B (Homo sapiens, UniProt Q13370)", "T1 construct": "purchased Eurofins Cerep", "T1 sequence (Q13370 whole entry)": "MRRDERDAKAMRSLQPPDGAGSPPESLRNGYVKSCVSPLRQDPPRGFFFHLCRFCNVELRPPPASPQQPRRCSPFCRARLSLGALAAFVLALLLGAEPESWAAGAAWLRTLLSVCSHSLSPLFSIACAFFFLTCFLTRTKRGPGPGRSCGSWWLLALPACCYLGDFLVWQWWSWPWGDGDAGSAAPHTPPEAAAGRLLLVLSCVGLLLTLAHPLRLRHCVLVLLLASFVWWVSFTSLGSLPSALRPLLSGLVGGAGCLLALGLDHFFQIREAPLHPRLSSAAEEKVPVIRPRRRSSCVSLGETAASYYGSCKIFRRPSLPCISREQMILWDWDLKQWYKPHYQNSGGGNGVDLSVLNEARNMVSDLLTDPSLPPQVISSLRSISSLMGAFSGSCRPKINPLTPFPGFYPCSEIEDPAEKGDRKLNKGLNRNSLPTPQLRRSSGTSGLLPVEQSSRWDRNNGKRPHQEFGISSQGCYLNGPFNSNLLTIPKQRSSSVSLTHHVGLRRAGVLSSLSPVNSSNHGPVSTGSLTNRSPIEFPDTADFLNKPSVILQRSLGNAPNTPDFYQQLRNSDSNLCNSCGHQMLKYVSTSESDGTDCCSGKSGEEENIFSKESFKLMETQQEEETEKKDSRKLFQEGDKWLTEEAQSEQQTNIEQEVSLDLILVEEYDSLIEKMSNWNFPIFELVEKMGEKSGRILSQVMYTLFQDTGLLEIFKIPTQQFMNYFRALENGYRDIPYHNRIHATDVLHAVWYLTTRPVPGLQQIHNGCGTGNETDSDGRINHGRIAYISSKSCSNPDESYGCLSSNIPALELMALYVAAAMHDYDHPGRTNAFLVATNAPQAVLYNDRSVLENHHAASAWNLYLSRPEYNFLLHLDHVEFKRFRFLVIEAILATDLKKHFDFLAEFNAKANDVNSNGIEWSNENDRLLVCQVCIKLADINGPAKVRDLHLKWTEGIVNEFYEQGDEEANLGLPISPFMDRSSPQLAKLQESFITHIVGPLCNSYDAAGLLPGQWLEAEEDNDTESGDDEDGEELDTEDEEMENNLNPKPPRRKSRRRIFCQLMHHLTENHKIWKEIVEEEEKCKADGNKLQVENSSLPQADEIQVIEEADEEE", "assay": "CEREP enzyme inhibition", "type": "biochemical"}, "[3]": {"assay": "Metabolic stability in cryopreserved human hepatocytes"}, "[4]": {"target": "T2, Human Elastase (Homo sapiens, UniProt P08246)", "T2 construct": "Reaction Biology Corporation (ran the assay as a service)", "T2 sequence (P08246 30-267)": "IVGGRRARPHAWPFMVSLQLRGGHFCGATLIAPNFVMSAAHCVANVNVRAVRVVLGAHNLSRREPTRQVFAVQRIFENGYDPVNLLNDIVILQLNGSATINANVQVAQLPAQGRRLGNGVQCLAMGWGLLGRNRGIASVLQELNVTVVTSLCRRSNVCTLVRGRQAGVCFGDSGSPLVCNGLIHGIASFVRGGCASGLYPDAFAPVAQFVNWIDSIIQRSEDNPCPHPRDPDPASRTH", "assay": "biochemical"}, "[5]": {"target": "T3, Angiotensin Converting Enzyme (Homo sapiens, UniProt P12821)", "T3 construct": "purchased Eurofins Cerep", "assay": "CEREP enzyme inhibition", "type": "biochemical"}, "[6]": {"system": "NMDA Receptor (PCP site)", "assay": "CEREP ion channel-binding", "details": "30 µM"}, "[7]": {"assay": "RRCK passive permeability", "details": "dog, MDCK"}, "[8]": {"target": "CYP2C8 (Homo sapiens, UniProt P10632)", "sequence (P10632 whole entry)": "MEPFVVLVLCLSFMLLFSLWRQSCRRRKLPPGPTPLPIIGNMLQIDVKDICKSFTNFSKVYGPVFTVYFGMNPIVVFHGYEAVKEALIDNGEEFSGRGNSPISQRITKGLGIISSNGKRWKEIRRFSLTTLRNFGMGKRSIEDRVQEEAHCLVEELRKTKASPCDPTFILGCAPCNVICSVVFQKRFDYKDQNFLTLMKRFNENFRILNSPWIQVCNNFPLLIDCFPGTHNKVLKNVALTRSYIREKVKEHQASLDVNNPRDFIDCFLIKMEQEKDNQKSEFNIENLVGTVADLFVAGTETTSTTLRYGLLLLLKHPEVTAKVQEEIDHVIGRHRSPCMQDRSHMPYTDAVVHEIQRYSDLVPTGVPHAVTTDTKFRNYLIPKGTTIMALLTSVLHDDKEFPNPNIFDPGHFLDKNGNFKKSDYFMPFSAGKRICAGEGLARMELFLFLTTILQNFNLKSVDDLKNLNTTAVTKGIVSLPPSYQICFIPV", "assay": "biochemical"}, "[9]": {"target": "T4, GABAa1 Receptor (Homo sapiens, UniProt P14867)", "T4 construct": "purchased Eurofins Cerep", "T4 sequence (P14867 28-456)": "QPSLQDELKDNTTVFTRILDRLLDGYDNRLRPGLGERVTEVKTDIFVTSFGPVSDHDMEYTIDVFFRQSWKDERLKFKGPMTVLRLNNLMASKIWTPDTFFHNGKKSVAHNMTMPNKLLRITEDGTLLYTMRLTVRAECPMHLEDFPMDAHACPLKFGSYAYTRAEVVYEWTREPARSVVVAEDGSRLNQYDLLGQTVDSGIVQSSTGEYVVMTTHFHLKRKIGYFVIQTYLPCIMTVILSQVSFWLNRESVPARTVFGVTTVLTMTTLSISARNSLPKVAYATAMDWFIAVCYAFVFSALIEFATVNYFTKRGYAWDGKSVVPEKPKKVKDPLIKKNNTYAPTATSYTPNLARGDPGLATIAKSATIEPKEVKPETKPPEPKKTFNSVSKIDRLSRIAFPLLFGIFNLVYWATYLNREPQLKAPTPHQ", "T4 sequence (P47870 26-512 partner)": "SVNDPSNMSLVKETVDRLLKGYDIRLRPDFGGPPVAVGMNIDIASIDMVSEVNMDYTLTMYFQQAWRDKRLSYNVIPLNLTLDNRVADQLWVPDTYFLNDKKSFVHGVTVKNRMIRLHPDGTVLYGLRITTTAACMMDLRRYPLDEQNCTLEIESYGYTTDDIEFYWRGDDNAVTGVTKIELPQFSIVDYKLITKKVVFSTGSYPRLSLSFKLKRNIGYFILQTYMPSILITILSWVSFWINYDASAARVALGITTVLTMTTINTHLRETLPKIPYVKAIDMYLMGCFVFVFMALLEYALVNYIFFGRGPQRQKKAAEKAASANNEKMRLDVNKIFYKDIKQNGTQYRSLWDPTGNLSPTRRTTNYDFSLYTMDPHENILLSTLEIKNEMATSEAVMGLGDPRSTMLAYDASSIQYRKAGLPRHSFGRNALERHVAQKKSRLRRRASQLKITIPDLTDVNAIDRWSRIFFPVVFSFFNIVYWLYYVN", "T4 sequence (P18507 40-475 partner)": "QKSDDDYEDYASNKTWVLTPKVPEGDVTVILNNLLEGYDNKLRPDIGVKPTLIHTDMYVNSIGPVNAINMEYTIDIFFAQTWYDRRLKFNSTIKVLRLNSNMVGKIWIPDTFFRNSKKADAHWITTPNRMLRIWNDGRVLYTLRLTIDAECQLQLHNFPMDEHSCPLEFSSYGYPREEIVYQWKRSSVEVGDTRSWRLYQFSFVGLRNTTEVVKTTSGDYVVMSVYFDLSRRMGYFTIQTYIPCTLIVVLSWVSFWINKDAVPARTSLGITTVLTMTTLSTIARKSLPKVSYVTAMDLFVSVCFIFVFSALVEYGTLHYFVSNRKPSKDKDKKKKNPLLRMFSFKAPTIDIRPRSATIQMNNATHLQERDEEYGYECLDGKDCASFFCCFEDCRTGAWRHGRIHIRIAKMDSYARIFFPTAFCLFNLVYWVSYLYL", "assay": "CEREP ion channel-binding"}, "[10]": {"system": "Nicotinic Ach Receptor (Neuronal)", "assay": "CEREP ion channel-binding", "details": "30 µM"}, "[11]": {"system": "L-Type Ca (Diltiazem)", "assay": "CEREP ion channel-binding", "details": "30 µM"}, "[12]": {"assay": "in vitro", "details": "African green monkey, Mean CC50, n=3"}, "[13]": {"target": "T5, Human Cathepsin F (Homo sapiens, UniProt Q9UBX1)", "T5 construct": "assay run at BPS Bioscience", "T5 sequence (Q9UBX1 271-484)": "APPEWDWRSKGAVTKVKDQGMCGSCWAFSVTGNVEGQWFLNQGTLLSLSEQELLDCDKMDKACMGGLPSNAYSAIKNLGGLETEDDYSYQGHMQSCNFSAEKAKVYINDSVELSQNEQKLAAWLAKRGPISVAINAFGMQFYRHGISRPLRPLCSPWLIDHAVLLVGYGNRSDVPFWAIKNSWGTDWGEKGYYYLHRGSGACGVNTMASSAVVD", "assay": "biochemical"}, "[14]": {"assay": "Thermodynamic solubility", "type": "physicochemical", "details": "pH 7.4, aqueous buffer, thermodynamic from solid"}, "[15]": {"target": "T6, Human Cathepsin S (Homo sapiens, UniProt P25774)", "T6 construct": "assay run at Reaction Biology Corporation", "T6 sequence (P25774 115-331)": "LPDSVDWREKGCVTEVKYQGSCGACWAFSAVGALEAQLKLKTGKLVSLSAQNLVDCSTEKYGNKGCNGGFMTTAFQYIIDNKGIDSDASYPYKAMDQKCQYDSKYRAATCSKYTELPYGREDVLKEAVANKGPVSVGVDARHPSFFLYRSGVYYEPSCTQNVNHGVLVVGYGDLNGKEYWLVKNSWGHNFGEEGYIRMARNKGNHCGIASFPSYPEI", "assay": "biochemical"}, "[16]": {"assay": "in vivo", "parameters": "species or system mouse", "details": "for Vd: C57BL6, mouse, iv, 1 mg/kg, read-out: Vdss"}, "[17]": {"assay": "in vitro", "details": "mouse, plasma"}, "[18]": {"assay": "LogD", "type": "physicochemical"}, "[19]": {"target": "T7, Aurora A Kinase (Homo sapiens, UniProt O14965)", "T7 construct": "purchased Eurofins Cerep", "T7 sequence (O14965 whole entry)": "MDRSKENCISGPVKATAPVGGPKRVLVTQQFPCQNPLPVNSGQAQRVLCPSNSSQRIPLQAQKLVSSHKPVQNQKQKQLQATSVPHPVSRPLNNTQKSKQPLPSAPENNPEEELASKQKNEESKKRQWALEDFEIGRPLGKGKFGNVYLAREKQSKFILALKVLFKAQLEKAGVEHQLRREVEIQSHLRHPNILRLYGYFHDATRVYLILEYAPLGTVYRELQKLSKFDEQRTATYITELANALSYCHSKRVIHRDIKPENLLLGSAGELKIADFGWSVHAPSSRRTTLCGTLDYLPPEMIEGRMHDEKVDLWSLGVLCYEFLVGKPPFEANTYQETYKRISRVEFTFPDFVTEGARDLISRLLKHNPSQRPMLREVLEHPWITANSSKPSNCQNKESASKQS", "assay": "CEREP kinase inhibition", "type": "biochemical"}, "[20]": {"target": "T8, Serotonin Transporter (Homo sapiens, UniProt P31645)", "T8 construct": "purchased Eurofins Cerep", "T8 sequence (P31645 whole entry)": "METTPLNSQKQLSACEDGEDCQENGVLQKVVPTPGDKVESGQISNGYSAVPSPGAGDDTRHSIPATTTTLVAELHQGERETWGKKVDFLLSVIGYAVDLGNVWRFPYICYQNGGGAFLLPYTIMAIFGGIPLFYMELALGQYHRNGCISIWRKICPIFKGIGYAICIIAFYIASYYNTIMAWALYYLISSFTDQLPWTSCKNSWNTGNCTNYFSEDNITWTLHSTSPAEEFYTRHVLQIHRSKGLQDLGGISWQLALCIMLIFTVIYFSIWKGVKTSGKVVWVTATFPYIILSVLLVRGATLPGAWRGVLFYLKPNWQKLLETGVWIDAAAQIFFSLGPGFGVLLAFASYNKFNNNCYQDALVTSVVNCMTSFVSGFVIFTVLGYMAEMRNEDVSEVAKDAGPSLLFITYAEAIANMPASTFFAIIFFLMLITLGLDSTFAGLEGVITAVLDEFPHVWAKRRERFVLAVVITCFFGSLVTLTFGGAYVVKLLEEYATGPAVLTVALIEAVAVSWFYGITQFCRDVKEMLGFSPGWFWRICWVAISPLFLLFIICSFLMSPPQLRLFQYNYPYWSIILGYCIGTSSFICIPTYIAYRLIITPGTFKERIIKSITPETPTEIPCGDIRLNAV", "assay": "CEREP transporters-binding"}, "[21]": {"target": "T9, Lck Kinase (Homo sapiens, UniProt P06239)", "T9 construct": "purchased Eurofins Cerep", "assay": "CEREP kinase inhibition", "type": "biochemical"}, "[22]": {"target": "T10, Human Cathepsin K (Homo sapiens, UniProt P43235)", "T10 construct": "assay run at Reaction Biology Corporation", "T10 sequence (P43235 115-329)": "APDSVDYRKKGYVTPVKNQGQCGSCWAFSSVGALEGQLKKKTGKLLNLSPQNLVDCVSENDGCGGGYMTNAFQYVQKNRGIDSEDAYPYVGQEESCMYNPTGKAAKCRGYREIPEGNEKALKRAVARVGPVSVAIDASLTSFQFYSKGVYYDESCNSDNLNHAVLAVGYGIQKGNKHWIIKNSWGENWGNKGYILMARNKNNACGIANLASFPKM", "assay": "biochemical"}, "[23]": {"details": "in vivo, Male C57BL6 mouse, 1.0 mg/kg iv, solution, mean n=2"}, "[24]": {"details": "in vivo, Male C57BL6 mouse, 10 mg/kg po, solution, mean n=2"}, "[25]": {"details": "mouse Balb c female, PO 15 mg/kg, suspension"}, "[26]": {"details": "mouse Balb c female, PO 50 mg/kg, suspension"}, "[27]": {"details": "mouse Balb c female, PO 150 mg/kg, suspension"}, "[28]": {"details": "mouse C57BL6 male, IV 1 mg/kg, solution"}, "[29]": {"details": "mouse C57BL6 male, PO 10 mg/kg, solution"}, "[30]": {"details": "mouse C57BL6 male, PO 30 mg/kg, solution"}}, "note": "pIC50: −log10 of the molar value. Read-outs that look alike come from different tables or passages of the source.", "data": [{"smiles": "Cc1ccc(N2CCN(C)CC2)cc1C(=O)NC1(c2cc(-c3cnn(C)c3)nc3ccccc23)CC1", "note": "[Compound 4]", "values": [{"measurement": "% inhibition", "setting": "[1]", "result": 2, "unit": "%"}, {"measurement": "inhibition at 30 µM", "setting": "[2]", "result": 4, "unit": "%"}, {"measurement": "hepatocyte CLint", "setting": "[3]", "result": 8.84, "unit": "µL/min/1e6 cells"}, {"measurement": "pIC50", "setting": "[4]", "result": "< 4.00"}, {"measurement": "inhibition at 30 µM", "setting": "[5]", "result": 14, "unit": "%"}, {"measurement": "% inhibition", "setting": "[6]", "result": 14, "unit": "%"}, {"measurement": "Papp", "setting": "[7]", "result": 31.4, "unit": "×10⁻⁶ cm/s"}, {"measurement": "pIC50", "setting": "[8]", "result": 4.12}, {"measurement": "inhibition at 30 µM", "setting": "[9]", "result": 10, "unit": "%"}, {"measurement": "% inhibition", "setting": "[10]", "result": -6, "unit": "%"}, {"measurement": "% inhibition", "setting": "[11]", "result": 10, "unit": "%"}, {"measurement": "CC50", "setting": "[12]", "result": 69.3, "unit": "µM"}, {"measurement": "pIC50", "setting": "[13]", "result": "< 4.00"}, {"measurement": "solubility thermodynamic", "setting": "[14]", "result": 541, "unit": "µM"}, {"measurement": "pIC50", "setting": "[15]", "result": "< 4.00"}, {"measurement": "Oral F", "setting": "[16]; Male C57BL6 mouse, 10 mg/kg po, solution, mean n=2", "result": 53.10, "unit": "%"}, {"measurement": "AUC(0-inf)", "setting": "[16]; [23]", "result": 708, "unit": "ng·h/mL"}, {"measurement": "half-life", "setting": "[16]; [23]", "result": 3.29, "unit": "h"}, {"measurement": "clearance", "setting": "[16]; in vivo, Male C57BL6 mouse, 1.0 mg/kg iv, solution, mean n=2, read-out: CLp", "result": 23.7, "unit": "mL/min/kg"}, {"measurement": "AUC(0-inf)", "setting": "[16]; [24]", "result": 3760, "unit": "ng·h/mL"}, {"measurement": "Cmax", "setting": "[16]; [24]", "result": 862, "unit": "ng/mL"}, {"measurement": "half-life", "setting": "[16]; [24]", "result": 2.19, "unit": "h"}, {"measurement": "Tmax", "setting": "[16]; in vivo, Male C57BL6 mouse, 10 mg/kg po, solution, mean n=2, read-out: Tmax", "result": 2, "unit": "h"}, {"measurement": "Cmax", "setting": "[16]; in vivo, mouse Balb c female, PO 15 mg/kg, suspension", "result": 1140, "unit": "ng/mL"}, {"measurement": "Cmax", "setting": "[16]; in vivo, mouse Balb c female, PO 50 mg/kg, suspension", "result": 5410, "unit": "ng/mL"}, {"measurement": "Cmax", "setting": "[16]; in vivo, mouse Balb c female, PO 150 mg/kg, suspension", "result": 12800, "unit": "ng/mL"}, {"measurement": "Cmax", "setting": "[16]; in vivo, mouse C57BL6 male, PO 30 mg/kg, solution", "result": 1880, "unit": "ng/mL"}, {"measurement": "bioavailability", "setting": "[16]; male, C57BL6, in vivo, po, 10 mg/kg, mouse (m), read-out: Oral F (%)", "result": 53.2, "unit": "%"}, {"measurement": "Vd", "setting": "[16]; male, in vivo, Male C57BL6 mouse, 1.0 mg/kg iv, solution, mean n=2", "result": 2.13, "unit": "L/kg"}, {"measurement": "Vd", "setting": "[16]; male, in vivo, mouse (m), intravenous", "result": 2.12, "unit": "L/kg"}, {"measurement": "Vd", "setting": "[16]; male, in vivo, mouse C57BL6 male, IV 1 mg/kg, solution", "result": 2.13, "unit": "L/kg"}, {"measurement": "% F Method 3 (Dose * AUC Extrap)", "setting": "[16]; [25]", "result": 74.8, "unit": "%"}, {"measurement": "AUC(0,inf)", "setting": "[16]; [25]", "result": 7940, "unit": "ng·h/mL"}, {"measurement": "AUC(0-Tlast)", "setting": "[16]; [25]", "result": 7940, "unit": "ng·h/mL"}, {"measurement": "T1/2", "setting": "[16]; [25]", "result": 1.95, "unit": "h"}, {"measurement": "Tmax", "setting": "[16]; [25]", "result": 1.25, "unit": "h"}, {"measurement": "% F Method 3 (Dose * AUC Extrap)", "setting": "[16]; [26]", "result": 84.0, "unit": "%"}, {"measurement": "AUC(0,inf)", "setting": "[16]; [26]", "result": 29800, "unit": "ng·h/mL"}, {"measurement": "AUC(0-Tlast)", "setting": "[16]; [26]", "result": 29700, "unit": "ng·h/mL"}, {"measurement": "T1/2", "setting": "[16]; [26]", "result": 2.01, "unit": "h"}, {"measurement": "Tmax", "setting": "[16]; [26]", "result": 0.375, "unit": "h"}, {"measurement": "% F Method 3 (Dose * AUC Extrap)", "setting": "[16]; [27]", "result": 84.0, "unit": "%"}, {"measurement": "AUC(0,inf)", "setting": "[16]; [27]", "result": 89200, "unit": "ng·h/mL"}, {"measurement": "AUC(0-Tlast)", "setting": "[16]; [27]", "result": 89100, "unit": "ng·h/mL"}, {"measurement": "T1/2", "setting": "[16]; [27]", "result": 2.47, "unit": "h"}, {"measurement": "Tmax", "setting": "[16]; [27]", "result": 0.25, "unit": "h"}, {"measurement": "% of dose in feces", "setting": "[16]; [28]", "result": 26.0, "unit": "%"}, {"measurement": "AUC(0,inf)", "setting": "[16]; [28]", "result": 708, "unit": "ng·h/mL"}, {"measurement": "AUC(0-Tlast)", "setting": "[16]; [28]", "result": 706, "unit": "ng·h/mL"}, {"measurement": "T1/2", "setting": "[16]; [28]", "result": 3.29, "unit": "h"}, {"measurement": "% F Method 3 (Dose * AUC Extrap)", "setting": "[16]; [29]", "result": 53.1, "unit": "%"}, {"measurement": "% of dose in feces", "setting": "[16]; [29]", "result": 12.6, "unit": "%"}, {"measurement": "AUC(0,inf)", "setting": "[16]; [29]", "result": 3760, "unit": "ng·h/mL"}, {"measurement": "AUC(0-Tlast)", "setting": "[16]; [29]", "result": 3760, "unit": "ng·h/mL"}, {"measurement": "T1/2", "setting": "[16]; [29]", "result": 2.19, "unit": "h"}, {"measurement": "Tmax", "setting": "[16]; [29]", "result": 2, "unit": "h"}, {"measurement": "% F Method 3 (Dose * AUC Extrap)", "setting": "[16]; [30]", "result": 67.4, "unit": "%"}, {"measurement": "% of dose in feces", "setting": "[16]; [30]", "result": 10.8, "unit": "%"}, {"measurement": "AUC(0,inf)", "setting": "[16]; [30]", "result": 14300, "unit": "ng·h/mL"}, {"measurement": "AUC(0-Tlast)", "setting": "[16]; [30]", "result": 14300, "unit": "ng·h/mL"}, {"measurement": "T1/2", "setting": "[16]; [30]", "result": 2.17, "unit": "h"}, {"measurement": "Tmax", "setting": "[16]; [30]", "result": 2, "unit": "h"}, {"measurement": "tolerability", "setting": "[16]; mouse, oral, highest dose studied (500 mg/kg)", "result": "tolerated"}, {"measurement": "fraction unbound", "setting": "[17]", "result": 0.093}, {"measurement": "logD", "setting": "[18]", "result": 2.5}, {"measurement": "inhibition at 30 µM", "setting": "[19]", "result": -1, "unit": "%"}, {"measurement": "inhibition at 30 µM", "setting": "[20]", "result": 8, "unit": "%"}, {"measurement": "inhibition at 30 µM", "setting": "[21]", "result": -1, "unit": "%"}, {"measurement": "pIC50", "setting": "[22]", "result": "< 4.00"}]}]}
